This is an account of results in paper PMC5797143, “Epigenetic modulation of inflammation and synaptic plasticity promotes resilience against stress in mice” (Nature Communications, 2018).

Data set [1] has as its system MSN-enriched primary neurons and PBMCs. Kind of data set: MTT assay. The format is cell-based, mouse. As to the method:
MTT and LDH release assays were conducted in MSN-enriched primary neurons and in PBMCs[64]. Cellular cytotoxicity was conducted in HepG2 cells using high content screening (HCS) protocols. Briefly, HepG2 cells were plated on 384-well tissue culture treated black walled clear bottomed polystyrene plates and treated with varying concentrations of Mal-gluc or DHCA. The cells were loaded with the relevant dye/antibody for each cell-health marker following incubation, including cell count, markers for nuclear size, DNA structure, cell membrane permeability, mitochondrial mass, mitochondrial membrane potential and cytochrome C release. The plates were then scanned using an automated fluorescent cellular imager ArrayScanr (Thermo Scientific Cellomics).
On the technique in general: Tetrazolium dyes change colour on reduction, which living cells bring about.

Data set [2] can be described thus: Plasma stability, human plasma. It counts as in vitro ADME. Conditions: 37 °C. As to the method: (§1) Compound stability in mouse and human plasma and in mouse brain homogenate were conducted, [45]. Specifically, Mal-gluc or DHCA was incubated in duplicate with plasma at 37 °C and samples were taken at various time points and mixed with three volumes of ice-cold Stop Solution (methanol containing propranolol, diclofenac, or other internal standard). Samples were centrifuged to remove precipitated protein, and the supernatants were analyzed by LC/MS/MS to quantitate for remaining test compound. Data are converted to percentage remaining by dividing by the time zero concentration value. Data are fit to a first-order decay model to determine half-life. Plasma protein binding were conducted using both mouse and human plasma.

Data set [3] addresses T1, Alpha2B (alpha adrenergic receptor) (Homo sapiens, UniProt P18089).
T1 construct: purchased NIMH Psychoactive Drug Screening Program (PDSP)
Put plainly: Radioligand binding assay. Conditions: 10 µM; HEK membrane fractions; quadruplicate. Here is the method:
(§2) Radioligand binding assays were performed as previously described. Briefly, crude membrane fractions prepared from a stable HEK cell line expressing recombinant receptors were mixed with a radiolabeled specific ligand and 10 µM of competitor compound (DHCA, Mal-gluc, or non-specific ligand). The percentage of radioligand binding was subsequently measured.

Data set [4] deals with T2, 5-HT6 (serotonin receptor) (Homo sapiens, UniProt P50406).
T2 construct: purchased NIMH Psychoactive Drug Screening Program (PDSP)
T2 sequence (P50406 whole entry): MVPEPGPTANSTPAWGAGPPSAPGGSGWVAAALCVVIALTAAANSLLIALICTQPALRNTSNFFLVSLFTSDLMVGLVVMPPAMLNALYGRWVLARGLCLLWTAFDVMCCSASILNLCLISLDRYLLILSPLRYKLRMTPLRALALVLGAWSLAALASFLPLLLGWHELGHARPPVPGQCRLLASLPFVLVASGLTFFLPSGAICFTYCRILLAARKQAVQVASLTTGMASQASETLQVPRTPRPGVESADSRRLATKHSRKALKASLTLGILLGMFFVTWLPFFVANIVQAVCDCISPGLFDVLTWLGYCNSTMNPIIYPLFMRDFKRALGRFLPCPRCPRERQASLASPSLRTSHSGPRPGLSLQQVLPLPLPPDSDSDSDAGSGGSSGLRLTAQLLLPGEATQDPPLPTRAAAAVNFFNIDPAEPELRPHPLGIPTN
Put plainly: Radioligand binding assay. As to conditions: 10 µM; HEK membrane fractions; quadruplicate. Here is the method: as §2

Data set [5] deals with T3, Alpha1B (alpha adrenergic receptor) (Homo sapiens, UniProt P35368).
T3 construct: purchased NIMH Psychoactive Drug Screening Program (PDSP)
T3 sequence (P35368 whole entry): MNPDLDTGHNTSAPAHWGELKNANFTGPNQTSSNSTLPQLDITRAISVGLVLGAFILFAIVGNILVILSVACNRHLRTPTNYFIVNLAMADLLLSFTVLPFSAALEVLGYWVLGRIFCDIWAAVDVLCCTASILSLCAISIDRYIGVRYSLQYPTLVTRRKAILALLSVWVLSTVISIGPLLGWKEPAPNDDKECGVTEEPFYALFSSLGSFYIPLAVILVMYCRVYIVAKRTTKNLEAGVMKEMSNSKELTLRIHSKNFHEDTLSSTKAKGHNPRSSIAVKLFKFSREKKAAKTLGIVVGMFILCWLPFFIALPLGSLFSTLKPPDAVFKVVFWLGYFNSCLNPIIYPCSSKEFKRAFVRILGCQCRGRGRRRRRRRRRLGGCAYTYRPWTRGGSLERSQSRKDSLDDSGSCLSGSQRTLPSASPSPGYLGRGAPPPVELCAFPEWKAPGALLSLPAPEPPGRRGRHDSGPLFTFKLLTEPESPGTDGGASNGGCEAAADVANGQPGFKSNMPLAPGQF
Kind of data set: Radioligand binding assay. As to conditions: 10 µM; HEK membrane fractions; quadruplicate. Here is the method:
as §2

Data set [6] addresses T4, 5-HT1A (serotonin receptor) (Homo sapiens, UniProt P08908).
T4 construct: purchased NIMH Psychoactive Drug Screening Program (PDSP)
Put plainly: Radioligand binding assay. Conditions: 10 µM; HEK membrane fractions; quadruplicate. As to the method:
as §2

In data set [7] the target is T5, Beta2 (beta adrenergic receptor) (Homo sapiens, UniProt P07550).
T5 construct: purchased NIMH Psychoactive Drug Screening Program (PDSP)
Kind of data set: Radioligand binding assay. Conditions: 10 µM; HEK membrane fractions; quadruplicate. As to the method: as §2

In data set [8] the target is T6, 5-HT3 (serotonin receptor) (Homo sapiens, UniProt P46098).
T6 construct: expressed in transfected cells; crude membrane fractions
T6 sequence (P46098 24-478): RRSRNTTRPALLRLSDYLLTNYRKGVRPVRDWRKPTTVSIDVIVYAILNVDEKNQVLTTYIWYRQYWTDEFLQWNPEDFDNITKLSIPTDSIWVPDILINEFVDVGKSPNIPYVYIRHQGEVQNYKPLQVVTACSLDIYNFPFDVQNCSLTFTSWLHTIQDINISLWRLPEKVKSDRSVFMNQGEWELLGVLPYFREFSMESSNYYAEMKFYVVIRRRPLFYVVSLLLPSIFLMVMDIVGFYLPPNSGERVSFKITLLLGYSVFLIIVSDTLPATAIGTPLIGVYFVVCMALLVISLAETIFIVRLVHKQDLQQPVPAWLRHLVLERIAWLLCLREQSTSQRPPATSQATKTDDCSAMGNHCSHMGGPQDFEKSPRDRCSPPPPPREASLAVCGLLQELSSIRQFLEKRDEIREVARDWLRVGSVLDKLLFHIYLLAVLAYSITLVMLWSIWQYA
Kind of data set: Radioligand binding assay. Conditions: for Binding activity, 5-HT3 (percentage): 10 µM, HEK membrane fractions, quadruplicate. Here is the method: as §2

In data set [9] the test system is BZP RBS (rat brain benzylpiperazine site). Kind of data set: Radioligand binding assay. Conditions: 10 µM; quadruplicate. As to the method: as §2
Data set [10] deals with T7, 5-HT2A (serotonin receptor) (Homo sapiens, UniProt P28223).
T7 construct: purchased NIMH Psychoactive Drug Screening Program (PDSP)
Put plainly: Radioligand binding assay. As to conditions: 10 µM; HEK membrane fractions; quadruplicate. Here is the method:
as §2

Data set [11] has as its target T8, D5 (dopamine receptor) (Homo sapiens, UniProt P21918).
T8 construct: purchased NIMH Psychoactive Drug Screening Program (PDSP)
Put plainly: Radioligand binding assay. Conditions: 10 µM; HEK membrane fractions; quadruplicate. As to the method: as §2

The target in data set [12] is T9, Alpha1D (alpha adrenergic receptor) (Homo sapiens, UniProt P25100).
T9 construct: purchased NIMH Psychoactive Drug Screening Program (PDSP)
Kind of data set: Radioligand binding assay. Conditions: 10 µM; HEK membrane fractions; quadruplicate. As to the method:
as §2

Data set [13] deals with T10, Alpha2A (alpha adrenergic receptor) (Homo sapiens, UniProt P08913).
T10 construct: purchased NIMH Psychoactive Drug Screening Program (PDSP)
T10 sequence (P08913 whole entry): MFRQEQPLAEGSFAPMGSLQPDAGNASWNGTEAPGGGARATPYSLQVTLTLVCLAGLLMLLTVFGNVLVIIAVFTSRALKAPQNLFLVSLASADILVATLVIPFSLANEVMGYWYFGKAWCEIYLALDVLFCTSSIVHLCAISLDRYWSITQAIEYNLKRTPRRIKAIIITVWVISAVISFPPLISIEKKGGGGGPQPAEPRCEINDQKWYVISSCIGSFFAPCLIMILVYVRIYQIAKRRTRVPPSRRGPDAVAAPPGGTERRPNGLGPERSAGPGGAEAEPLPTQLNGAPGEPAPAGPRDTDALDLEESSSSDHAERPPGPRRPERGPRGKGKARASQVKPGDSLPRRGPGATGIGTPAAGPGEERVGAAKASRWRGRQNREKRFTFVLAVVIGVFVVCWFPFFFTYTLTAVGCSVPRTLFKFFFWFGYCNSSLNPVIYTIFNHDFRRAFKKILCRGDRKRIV
Kind of data set: Radioligand binding assay. Conditions: 10 µM; HEK membrane fractions; quadruplicate. As to the method:
as §2

For data set [14], the target named is T11, Alpha1A (alpha adrenergic receptor) (Homo sapiens, UniProt P35348).
T11 construct: purchased NIMH Psychoactive Drug Screening Program (PDSP)
T11 sequence (P35348 whole entry): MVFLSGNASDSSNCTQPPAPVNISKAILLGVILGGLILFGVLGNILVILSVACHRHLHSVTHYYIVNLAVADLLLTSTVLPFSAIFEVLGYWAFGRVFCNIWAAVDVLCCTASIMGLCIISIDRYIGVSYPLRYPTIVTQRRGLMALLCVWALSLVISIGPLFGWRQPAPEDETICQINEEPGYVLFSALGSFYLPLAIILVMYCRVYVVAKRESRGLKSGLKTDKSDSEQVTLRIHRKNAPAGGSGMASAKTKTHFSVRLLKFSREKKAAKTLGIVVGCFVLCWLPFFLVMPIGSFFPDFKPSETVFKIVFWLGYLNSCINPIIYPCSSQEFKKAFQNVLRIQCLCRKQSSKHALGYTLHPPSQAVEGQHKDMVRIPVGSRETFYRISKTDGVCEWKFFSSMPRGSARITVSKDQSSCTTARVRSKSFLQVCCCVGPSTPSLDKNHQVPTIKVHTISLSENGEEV
Kind of data set: Radioligand binding assay. As to conditions: 10 µM; HEK membrane fractions; quadruplicate. As to the method:
as §2

In data set [15] the target is T12, 5-HT1B (serotonin receptor) (Homo sapiens, UniProt P28222).
T12 construct: purchased NIMH Psychoactive Drug Screening Program (PDSP)
T12 sequence (P28222 whole entry): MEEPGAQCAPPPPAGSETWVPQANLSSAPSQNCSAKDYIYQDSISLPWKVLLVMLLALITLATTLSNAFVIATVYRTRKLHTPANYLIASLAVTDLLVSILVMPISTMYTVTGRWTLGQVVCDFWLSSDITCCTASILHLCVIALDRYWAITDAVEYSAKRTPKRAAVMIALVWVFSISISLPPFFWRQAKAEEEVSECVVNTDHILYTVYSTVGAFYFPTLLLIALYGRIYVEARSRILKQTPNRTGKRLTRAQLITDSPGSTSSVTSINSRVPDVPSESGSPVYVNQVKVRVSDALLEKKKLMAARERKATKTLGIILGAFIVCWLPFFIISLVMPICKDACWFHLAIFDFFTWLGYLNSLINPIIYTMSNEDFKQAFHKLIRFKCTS
Put plainly: Radioligand binding assay. Conditions: 10 µM; HEK membrane fractions; quadruplicate. Here is the method: as §2

Data set [16] addresses T13, 5-hT5a (serotonin receptor) (Homo sapiens, UniProt P47898).
T13 construct: purchased NIMH Psychoactive Drug Screening Program (PDSP)
Kind of data set: Radioligand binding assay. As to conditions: 10 µM; HEK membrane fractions; quadruplicate. Here is the method:
as §2

Data set [17] has as its target T14, D2 (dopamine receptor) (Homo sapiens, UniProt P14416).
T14 construct: purchased NIMH Psychoactive Drug Screening Program (PDSP)
Kind of data set: Radioligand binding assay. As to conditions: 10 µM; HEK membrane fractions; quadruplicate. As to the method: as §2

Data set [18] deals with T15, 5-HT2B (serotonin receptor) (Homo sapiens, UniProt P41595).
T15 construct: purchased NIMH Psychoactive Drug Screening Program (PDSP)
Kind of data set: Radioligand binding assay. Conditions: 10 µM; HEK membrane fractions; quadruplicate. As to the method: as §2

Data set [19] deals with T16, M3 (muscarinic receptor) (Homo sapiens, UniProt P20309).
T16 construct: purchased NIMH Psychoactive Drug Screening Program (PDSP)
T16 sequence (P20309 whole entry): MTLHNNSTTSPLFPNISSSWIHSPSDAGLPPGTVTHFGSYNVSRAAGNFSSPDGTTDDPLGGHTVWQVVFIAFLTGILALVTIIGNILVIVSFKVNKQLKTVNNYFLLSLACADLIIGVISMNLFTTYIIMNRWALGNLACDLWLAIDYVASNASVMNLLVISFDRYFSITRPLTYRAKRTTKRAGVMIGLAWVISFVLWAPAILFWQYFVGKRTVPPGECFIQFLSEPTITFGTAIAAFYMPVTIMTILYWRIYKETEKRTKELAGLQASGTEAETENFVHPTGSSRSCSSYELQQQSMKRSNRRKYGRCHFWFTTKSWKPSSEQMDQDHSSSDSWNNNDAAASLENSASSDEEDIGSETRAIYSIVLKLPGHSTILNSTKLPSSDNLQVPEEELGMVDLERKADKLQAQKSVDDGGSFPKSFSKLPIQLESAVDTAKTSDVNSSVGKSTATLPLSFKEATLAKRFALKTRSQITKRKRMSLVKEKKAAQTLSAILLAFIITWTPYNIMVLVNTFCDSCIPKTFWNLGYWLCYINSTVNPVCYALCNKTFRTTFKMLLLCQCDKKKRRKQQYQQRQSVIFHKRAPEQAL
Kind of data set: Radioligand binding assay. Conditions: 10 µM; HEK membrane fractions; quadruplicate. Here is the method: as §2

Data set [20] has as its target T17, M5 (muscarinic receptor) (Homo sapiens, UniProt P08912).
T17 construct: purchased NIMH Psychoactive Drug Screening Program (PDSP)
Kind of data set: Radioligand binding assay. Conditions: 10 µM; HEK membrane fractions; quadruplicate. As to the method:
as §2

Data set [21] has as its target T18, MOR (µ-opioid receptor) (Homo sapiens, UniProt P35372).
T18 construct: purchased NIMH Psychoactive Drug Screening Program (PDSP)
Put plainly: Radioligand binding assay. As to conditions: 10 µM; HEK membrane fractions; quadruplicate. Here is the method: as §2

Data set [22] deals with T19, human Ether-à-go-go-related gene (hERG) (Homo sapiens, UniProt Q12809).
T19 construct: expressed in transfected cells; host or cells: CHO cells, stably transfected
Put plainly: In vitro cardiotoxicity, hERG inhibition (IonWorks HT, CHO cells). The format is cell-based. Conditions: CHO cells stably transfected with hERG. As to the method: Cardiotoxicity was assessed using CHO cells stably transfected with the hERG using the IonWorks HT instrument (Molecular Devices Corporation), which automatically performs electrophysiology measurements in 48 single cells simultaneously in a specialized 384-well plate (PatchPlate)[42]. A single-cell suspension was added to the wells of a PatchPlate to form an electrical seal at the bottom and pre-compound currents were recorded. Various concentrations of Mal-gluc or DHCA were added to the cells in four replicates for 5 min and post-compound currents were then recorded. Post-compound currents are then expressed as a percentage of pre-compound currents and plotted against concentration for each compound and IC50 was calculated.
Background: hERG is a cardiac potassium channel; its block is linked to QT prolongation.

The nature of data set [23]: Plasma stability, mouse plasma. It counts as in vitro ADME. Conditions: 37 °C. As to the method: as §1

Some results are limits rather than exact numbers.

T13 sequence (P47898 whole entry): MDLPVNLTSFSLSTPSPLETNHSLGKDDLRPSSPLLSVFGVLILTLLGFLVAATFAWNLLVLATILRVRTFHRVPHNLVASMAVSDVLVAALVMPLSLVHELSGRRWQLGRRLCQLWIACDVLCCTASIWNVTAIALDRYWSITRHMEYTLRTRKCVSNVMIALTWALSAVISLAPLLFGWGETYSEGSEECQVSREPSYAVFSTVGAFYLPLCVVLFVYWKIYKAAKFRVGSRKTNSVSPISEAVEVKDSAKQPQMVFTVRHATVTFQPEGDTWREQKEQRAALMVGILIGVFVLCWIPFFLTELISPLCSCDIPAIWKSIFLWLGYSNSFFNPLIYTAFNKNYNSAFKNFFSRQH
T18 sequence (P35372 whole entry): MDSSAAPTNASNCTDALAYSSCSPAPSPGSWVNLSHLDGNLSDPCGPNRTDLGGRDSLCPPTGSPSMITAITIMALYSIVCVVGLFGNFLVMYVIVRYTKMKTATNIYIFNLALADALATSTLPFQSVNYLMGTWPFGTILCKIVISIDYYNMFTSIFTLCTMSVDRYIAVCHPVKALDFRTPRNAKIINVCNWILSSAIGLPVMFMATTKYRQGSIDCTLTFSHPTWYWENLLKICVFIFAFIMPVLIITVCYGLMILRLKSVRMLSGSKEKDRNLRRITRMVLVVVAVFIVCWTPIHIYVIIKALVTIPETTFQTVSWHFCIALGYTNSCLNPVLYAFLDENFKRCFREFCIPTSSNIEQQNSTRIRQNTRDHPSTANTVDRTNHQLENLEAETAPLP
T14 sequence (P14416 whole entry): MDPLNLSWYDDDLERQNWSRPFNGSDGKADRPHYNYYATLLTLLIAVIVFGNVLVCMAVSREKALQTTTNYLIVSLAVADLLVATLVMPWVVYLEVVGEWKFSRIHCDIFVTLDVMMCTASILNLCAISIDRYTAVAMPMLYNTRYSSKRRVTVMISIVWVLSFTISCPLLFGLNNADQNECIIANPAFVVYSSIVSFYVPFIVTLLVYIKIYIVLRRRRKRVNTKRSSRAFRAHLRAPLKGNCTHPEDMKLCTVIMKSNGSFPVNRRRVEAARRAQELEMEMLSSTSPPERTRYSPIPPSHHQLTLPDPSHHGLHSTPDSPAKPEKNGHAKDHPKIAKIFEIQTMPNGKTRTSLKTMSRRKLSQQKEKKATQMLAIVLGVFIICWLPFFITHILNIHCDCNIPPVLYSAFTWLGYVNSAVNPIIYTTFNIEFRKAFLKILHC
T8 sequence (P21918 whole entry): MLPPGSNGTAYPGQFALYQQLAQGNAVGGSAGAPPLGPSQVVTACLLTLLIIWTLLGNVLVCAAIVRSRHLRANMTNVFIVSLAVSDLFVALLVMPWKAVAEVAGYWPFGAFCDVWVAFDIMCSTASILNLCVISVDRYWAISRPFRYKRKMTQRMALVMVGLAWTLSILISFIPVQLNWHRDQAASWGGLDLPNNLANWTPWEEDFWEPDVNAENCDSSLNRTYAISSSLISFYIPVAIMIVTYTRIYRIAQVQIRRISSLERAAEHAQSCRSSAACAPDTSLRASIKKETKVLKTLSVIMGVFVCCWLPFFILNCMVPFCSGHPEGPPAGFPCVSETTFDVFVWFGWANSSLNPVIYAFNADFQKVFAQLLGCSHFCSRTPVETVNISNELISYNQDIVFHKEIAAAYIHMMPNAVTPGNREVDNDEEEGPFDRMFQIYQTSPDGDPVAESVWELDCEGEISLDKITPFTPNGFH
T4 sequence (P08908 whole entry): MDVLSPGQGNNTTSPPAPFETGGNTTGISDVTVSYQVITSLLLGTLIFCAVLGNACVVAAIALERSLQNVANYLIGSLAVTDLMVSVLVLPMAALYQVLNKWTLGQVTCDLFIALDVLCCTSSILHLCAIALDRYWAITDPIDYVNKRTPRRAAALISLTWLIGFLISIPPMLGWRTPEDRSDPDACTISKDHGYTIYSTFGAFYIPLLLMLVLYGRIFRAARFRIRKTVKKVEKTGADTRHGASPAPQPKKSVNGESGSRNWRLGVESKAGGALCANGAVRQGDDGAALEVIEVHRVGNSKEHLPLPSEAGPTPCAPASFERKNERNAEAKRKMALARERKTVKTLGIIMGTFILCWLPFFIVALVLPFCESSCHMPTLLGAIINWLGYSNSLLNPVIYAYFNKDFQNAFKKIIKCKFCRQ

Usually half-life stands for the time needed for the level to fall by half in the phase considered. High values mean slow decline, low ones rapid decline. Usually IC50 stands for the concentration that inhibits the measured activity by half. Lower therefore signals inhibition by little substance. For the compound `O=C(O)CCc1ccc(O)c(O)c1` [DHCA, 3(3,4-dihydroxy-phenyl) propionic acid], in data set [1], the “MTT assay, % of vehicle control” value is listed as 100%. Moreover, the half-life in [2] (human, plasma) came out at 1.11 h; in data set [23] (mouse, plasma), 0.735 h. Also, the “Binding activity, Alpha2B (percentage)” value in data set [3] is −2.3%. Also, the “Binding activity, 5-HT6 (percentage)” value in [4] amounted to 24.2%. Besides, the “Binding activity, Alpha1B (percentage)” value in [5] was determined as 11.1%. In data set [6], the “Binding activity, 5-HT1A (percentage)” value was determined as 3.3%. The “Binding activity, Beta2 (percentage)” value in data set [7] was −7.6%. Besides, the “Binding activity, 5-HT3 (percentage)” value in data set [8] is reported as −11.7%. For the same compound, in data set [9], the “Binding activity, BZP RBS (percentage)” value is −5.2%. Besides, the “Binding activity, 5-HT2A (percentage)” value in data set [10] is recorded as 18%. For the same compound, the “Binding activity, D5 (percentage)” value in data set [11] amounted to 5.1%. In data set [12], the “Binding activity, Alpha1D (percentage)” value was −15.4%. Moreover, in data set [13], the “Binding activity, Alpha2A (percentage)” value is reported as 15.7%. For the same compound, the “Binding activity, Alpha1A (percentage)” value in data set [14] amounted to 4%. Further, the “Binding activity, 5-HT1B (percentage)” value in data set [15] is listed as −11.8%. Further, the “Binding activity, 5-hT5a (percentage)” value in [16] is recorded as 4.2%. Moreover, the “Binding activity, D2 (percentage)” value in data set [17] is recorded as −5.7%. Also, the “Binding activity, 5-HT2B (percentage)” value in data set [18] is listed as −7%. The “Binding activity, M3 (percentage)” value in data set [19] is 9.4%. In addition, the “Binding activity, M5 (percentage)” value in data set [20] stood at 21.2%. The “Binding activity, MOR (percentage)” value in [21] is reported as −7.1%. This compound also came in with a concentration for half-maximal inhibition (IC50) in data set [22] of over 25 µM.
A word on the Ki: it is a dissociation constant, usually derived from enzyme kinetics or from competition with a known ligand. On to `COc1cc(-c2[o+]c3cc(O)cc(O)c3cc2O[C@@H]2O[C@H](CO)[C@@H](O)[C@H](O)[C@H]2O)cc(OC)c1O` [Mal-gluc], for which the “MTT assay, % of vehicle control” value in data set [1] turned out to be 100%. In data set [2], the “Plasma stability, Half-life (human plasma)” value stood at 4.17 h. In addition, the “Binding activity, Alpha2B (percentage)” value in data set [3] is listed as −5.9%. In addition, in data set [4], the “Binding activity, 5-HT6 (percentage)” value was −18.5%. In [5], the “Binding activity, Alpha1B (percentage)” value worked out at 24.4%. For the same compound, the “Binding activity, 5-HT1A (percentage)” value in data set [6] was determined as 8.6%. Moreover, the “Binding activity, Beta2 (percentage)” value in data set [7] came to 1.9%. Further, the “Binding activity, 5-HT3 (percentage)” value in [8] was 74.1%. The Ki in data set [8] (secondary radioligand binding assay, read-out: calculated inhibitory constant (Ki), 5-HT3) was 4.3 µM. The “Binding activity, BZP RBS (percentage)” value in data set [9] is listed as 5.4%. For the same compound, the “Binding activity, 5-HT2A (percentage)” value in data set [10] was −10.5%. The “Binding activity, D5 (percentage)” value in [11] was −2%. The “Binding activity, Alpha1D (percentage)” value in data set [12] is −1.3%. The “Binding activity, Alpha2A (percentage)” value in [13] is listed as 7.3%. The “Binding activity, Alpha1A (percentage)” value in data set [14] is given as −4.5%. Further, the “Binding activity, 5-HT1B (percentage)” value in data set [15] came to 10.4%. Also, the “Binding activity, 5-hT5a (percentage)” value in data set [16] is 5.2%. For the same compound, in data set [17], the “Binding activity, D2 (percentage)” value is 7.2%. For the same compound, the “Binding activity, 5-HT2B (percentage)” value in data set [18] is reported as −13.8%. In addition, in data set [19], the “Binding activity, M3 (percentage)” value turned out to be 23.6%. Moreover, the “Binding activity, M5 (percentage)” value in data set [20] was −10.2%. Further, in data set [21], the “Binding activity, MOR (percentage)” value is reported as −5%. Also, in [22], the IC50 is over 25 µM. In addition, the “Plasma stability, Half-life (mouse plasma)” value in data set [23] was 3.35 h.
